Laboratory results from patent publication US9402398B2, “Herbicidal compounds” (SYNGENTA PARTICIPATIONS AG, priority 2012, dated 2016).

How the values were obtained:
Type in all cases: in vivo
[1] = system: Alopecurus myosuroides (ALOMY); test: Herbicidal glasshouse test, post-emergence; conditions: post-emergence (sprayed after 8 days cultivation), 1000 g/h, evaluated after 13 days
Description: (§1) Seeds of a variety of test species are sown in standard soil in pots (Alopecurus myosuroides (ALOMY), Setaria faberi (SETFA), Echinochloa crus-galli (ECHCG), Solanum nigrum (SOLNI), Amaranthus retoflexus (AMARE), Ipomoea hederacea (IPOHE)). After cultivation for one day (pre-emergence) or after 8 days cultivation (post-emergence) under controlled conditions in a glasshouse (at 24/16° C., day/night; 14 hours light; 65% humidity), the plants are sprayed with an aqueous spray solution derived from the formulation of the technical active ingredient in acetone/water (50:50) solution containing 0.5% Tween 20 (polyoxyethelyene sorbitan monolaurate, CAS RN 9005-64-5). Compounds are applied at 1000 g/h. The test plants are then grown in a glasshouse under controlled conditions in a glasshouse (at 24/16° C., day/night; 14 hours light; 65% humidity) and watered twice daily. After 13 days for pre and post-emergence, the test is evaluated for the percentage damage caused to the plant. The biological activities are shown in the following table on a five point scale (5=80-100%; 4=60-79%; 3=40-59%; 2=20-39%; 1=0-19%).

[2] = system: Amaranthus retoflexus (AMARE); test: Herbicidal glasshouse test, post-emergence; conditions: post-emergence (sprayed after 8 days cultivation), 1000 g/h, evaluated after 13 days
Description: as §1

[3] = system: Ipomoea hederacea (IPOHE); test: Herbicidal glasshouse test, post-emergence; conditions: post-emergence (sprayed after 8 days cultivation), 1000 g/h, evaluated after 13 days
Description: as §1

Solanum nigrum (SOLNI) [4] = test: Herbicidal glasshouse test, post-emergence; conditions: post-emergence (sprayed after 8 days cultivation), 1000 g/h, evaluated after 13 days
Description: as §1

[5] = system: Echinochloa crus-galli (ECHCG); test: Herbicidal glasshouse test, post-emergence; conditions: post-emergence (sprayed after 8 days cultivation), 1000 g/h, evaluated after 13 days
Description: as §1

Setaria faberi (SETFA) [6] = test: Herbicidal glasshouse test, post-emergence; conditions: post-emergence (sprayed after 8 days cultivation), 1000 g/h, evaluated after 13 days
Description: as §1

[7] = system: Alopecurus myosuroides (ALOMY); test: Herbicidal glasshouse test, pre-emergence; conditions: pre-emergence (sprayed after cultivation for one day), 1000 g/h, evaluated after 13 days
Description: as §1

[8] = system: Amaranthus retoflexus (AMARE); test: Herbicidal glasshouse test, pre-emergence; conditions: pre-emergence (sprayed after cultivation for one day), 1000 g/h, evaluated after 13 days
Description: as §1

[9] = system: Ipomoea hederacea (IPOHE); test: Herbicidal glasshouse test, pre-emergence; conditions: pre-emergence (sprayed after cultivation for one day), 1000 g/h, evaluated after 13 days
Description: as §1

Solanum nigrum (SOLNI) [10] = test: Herbicidal glasshouse test, pre-emergence; conditions: pre-emergence (sprayed after cultivation for one day), 1000 g/h, evaluated after 13 days
Description: as §1

[11] = system: Echinochloa crus-galli (ECHCG); test: Herbicidal glasshouse test, pre-emergence; conditions: pre-emergence (sprayed after cultivation for one day), 1000 g/h, evaluated after 13 days
Description: as §1

Setaria faberi (SETFA) [12] = test: Herbicidal glasshouse test, pre-emergence; conditions: pre-emergence (sprayed after cultivation for one day), 1000 g/h, evaluated after 13 days
Description: as §1

SMILES	percentage damage caused to the plant, five point scale, POST Application ALOMY [1]	percentage damage caused to the plant, five point scale, POST Application AMARE [2]	percentage damage caused to the plant, five point scale, POST Application IPOHE [3]	percentage damage caused to the plant, five point scale, POST Application SOLNI (Solanum nigrum (SOLNI) [4])	percentage damage caused to the plant, five point scale, POST Application ECHCG [5]	percentage damage caused to the plant, five point scale, POST Application SETFA (Setaria faberi (SETFA) [6])	percentage damage caused to the plant, five point scale, PRE Application ALOMY [7]	percentage damage caused to the plant, five point scale, PRE Application AMARE [8]	percentage damage caused to the plant, five point scale, PRE Application IPOHE [9]	percentage damage caused to the plant, five point scale, PRE Application SOLNI (Solanum nigrum (SOLNI) [10])	percentage damage caused to the plant, five point scale, PRE Application ECHCG [11]	percentage damage caused to the plant, five point scale, PRE Application SETFA (Setaria faberi (SETFA) [12])
Cc1cc(C(=O)Nc2nnnn2C)c(=O)n(-c2ccc(F)cc2)n1 [Compound 1.014]	5 (5=80-100%)	5 (5=80-100%)	5 (5=80-100%)	5 (5=80-100%)	5 (5=80-100%)	5 (5=80-100%)	5 (5=80-100%)	5 (5=80-100%)	4 (4=60-79%)	5 (5=80-100%)	5 (5=80-100%)	5 (5=80-100%)
Cc1cc(C(=O)Nc2nnnn2C)c(=O)n(Cc2cccc(F)c2)n1 [Compound 1.016]	4 (4=60-79%)	5 (5=80-100%)	3 (3=40-59%)	5 (5=80-100%)	4 (4=60-79%)	1 (1=0-19%)	2 (2=20-39%)	5 (5=80-100%)	4 (4=60-79%)	5 (5=80-100%)	4 (4=60-79%)	5 (5=80-100%)
COCCn1nc(C)cc(C(=O)Nc2nnnn2C)c1=O [Compound 1.017]	5 (5=80-100%)	5 (5=80-100%)	5 (5=80-100%)	5 (5=80-100%)	5 (5=80-100%)	5 (5=80-100%)	5 (5=80-100%)	5 (5=80-100%)	5 (5=80-100%)	5 (5=80-100%)	5 (5=80-100%)	5 (5=80-100%)
Cc1cc(C(=O)Nc2nnnn2C)c(=O)n(-c2cccc(C#N)c2)n1 [Compound 1.018]	5 (5=80-100%)	5 (5=80-100%)	5 (5=80-100%)	5 (5=80-100%)	5 (5=80-100%)	5 (5=80-100%)	5 (5=80-100%)	5 (5=80-100%)	5 (5=80-100%)	5 (5=80-100%)	5 (5=80-100%)	5 (5=80-100%)
Cc1cc(C(=O)Nc2nnnn2C)c(=O)n(-c2cc(Cl)ccc2C)n1 [Compound 1.019]	5 (5=80-100%)	5 (5=80-100%)	5 (5=80-100%)	5 (5=80-100%)	5 (5=80-100%)	5 (5=80-100%)	5 (5=80-100%)	5 (5=80-100%)	5 (5=80-100%)	5 (5=80-100%)	5 (5=80-100%)	5 (5=80-100%)
